We go through eight molecules from patent US7468368B2, “Piperazinylacylpiperidine derivatives, their preparation and therapeutic use thereof” (Sanofi Aventis, priority 2002, dated 2008).

Counter-ions that a name gives are not always drawn.

As for `COc1cccc(C2(CN)CCN(C(=O)CN3CCN(c4cnccn4)CC3)CC2)c1.O=C(O)C(=O)O.O=C(O)C(=O)O`, the melting point is 120 °C.
In turn, `CC(C)N(C)CC1(c2cccc(C(F)(F)F)c2)CCN(C(=O)CN2CCN(c3cnccn3)CC2)CC1.Cl.Cl.Cl` showed a melting point of 185 to 200 °C.
Next, `NCC1(c2cccc(C(F)(F)F)c2)CCN(C(=O)CN2CCN(c3cnccn3)CC2)CC1` [Compound No. 4, 1-[4-(Aminomethyl)-4-[3-(trifluoromethyl)phenyl]-1-piperidyl]-2-[4-(2-pyrazinyl)-1-piperazinyl]-1-ethanone]: 152 to 153 °C.
In the case of `O=C(CN1CCN(c2ccncn2)CC1)N1CC=C(c2cccc(C(F)(F)F)c2)CC1` (as salt: oxalate) [Compound No. 27, 2-[4-(4-Pyrimidinyl)-1-piperazinyl]-1-[4-[3-(trifluoromethyl)phenyl]-3,6-dihydro-1(2H)-pyridyl]-1-ethanone dioxalate] it was 160 °C; in that of `CNCC1(c2cccc(C(F)(F)F)c2)CCN(C(=O)CN2CCN(c3cnccn3)CC2)CC1` [Compound No. 57, 1-[4-[(Methylamino)methyl]-4-[3-(trifluoromethyl)phenyl]-1-piperidyl]-2-[4-(2-pyrazinyl)-1-piperazinyl]-1-ethanone], 137 to 139 °C.
In the case of `CN(C)CC1(c2cccc(C(F)(F)F)c2)CCN(C(=O)CN2CCN(c3cnccn3)CC2)CC1` [Compound No. 33, 1-[4-[(Dimethylamino)methyl]-4-[3-(trifluoromethyl)phenyl]-1-piperidyl]-2-[4-(2-pyrazinyl)-1-piperazinyl]-1-ethanone] it was 118 °C; in that of `NCC1(c2cccc(Cl)c2)CCN(C(=O)CN2CCN(c3cnccn3)CC2)CC1` [Compound No. 65, 1-[4-(Aminomethyl)-4-(3-chlorophenyl)-1-piperidyl]-2-[4-(2-pyrazinyl)-1-piperazinyl]-1-ethanone], 138 to 139 °C; in that of `O=C(CN1CCN(c2cnccn2)CC1)N1CCC(CO)(c2cccc(C(F)(F)F)c2)CC1` [Compound No. 32, 1-[4-(Hydroxymethyl)-4-[3-(trifluoromethyl)phenyl]-1-piperidyl]-2-[4-(2-pyrazinyl)-1-piperazinyl]-1-ethanone], 223 °C.
